Tested on: 217524-143-R1-J4-PDC spheroids with HUVEC/MSC, viability
Assay: Anticancer human tumor 217524-143-R1-J4-PDC patient-derived pancreatic carcinoma cell line growth inhibition [CLK]
Details: for IC50: curve of first compound; for viability, T/C: stronger effect = lower value
Procedure, shortened: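 Multi-cell-type spheroids combined patient-derived tumor cells with HUVEC endothelial cells and human mesenchymal stem cells. Paired agents were dosed in half-log steps down from about clinical Cmax, or from 10 microM where Cmax was unknown.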

[1] = second compound 0.0316 µM, first compound 0.0316 µM
[2] = second compound 0.0316 µM, first compound 0.1 µM
[3] = second compound 0.0316 µM, first compound 0.316 µM
[4] = second compound 0.0316 µM, first compound 1 µM
[5] = second compound 0.1 µM, first compound 0.0316 µM
[6] = second compound 0.1 µM, first compound 0.1 µM
[7] = second compound 0.1 µM, first compound 0.316 µM
[8] = second compound 0.1 µM, first compound 1 µM
[9] = second compound 0.316 µM, first compound 0.0316 µM
[10] = second compound 0.316 µM, first compound 0.1 µM
[11] = second compound 0.316 µM, first compound 0.316 µM
[12] = second compound 0.316 µM, first compound 1 µM
[13] = second compound 1 µM, first compound 0.0316 µM
[14] = second compound 1 µM, first compound 0.1 µM
[15] = second compound 1 µM, first compound 0.316 µM
[16] = second compound 1 µM, first compound 1 µM
[17] = second compound 3.16 µM, first compound 0.0316 µM
[18] = second compound 3.16 µM, first compound 0.1 µM
[19] = second compound 3.16 µM, first compound 0.316 µM
[20] = second compound 3.16 µM, first compound 1 µM
[21] = second compound 10 µM, first compound 0.0316 µM
[22] = second compound 10 µM, first compound 0.1 µM
[23] = second compound 10 µM, first compound 0.316 µM
[24] = second compound 10 µM, first compound 1 µM
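Further: spheroids exposed to agents for seven days before reading.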
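Wherever viability, T/C is given: 100% = DMSO vehicle control viability.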

Question: With CC(=O)O[C@H]1C(=O)[C@@]2(C)[C@H]([C@H](OC(=O)c3ccccc3)[C@]3(O)C[C@H](OC(=O)[C@H](O)[C@@H](NC(=O)c4ccccc4)c4ccccc4)C(C)=C1C3(C)C)[C@]1(OC(C)=O)CO[C@@H]1C[C@@H]2O + CNC(=O)c1ccc(Nc2nc(OC3CCCC3)c3c(-c4ccc5nc(C)oc5c4)c[nH]c3n2)c(OC)c1 as the compound, how does the IC50 (second compound 0.0316 µM) read?
Answer: < 31.6 nM

Question: What about the IC50 (second compound 0.1 µM) of the same compound?
Answer: < 31.6 nM

Question: What about the IC50 (second compound 0.316 µM) of the same compound?
Answer: < 31.6 nM

Question: What about the IC50 (second compound 1 µM) of the same compound?
Answer: < 31.6 nM

Question: What about the IC50 (second compound 3.16 µM) of the same compound?
Answer: < 31.6 nM

Question: And the IC50 (second compound 10 µM)?
Answer: < 31.6 nM

Question: And the viability, T/C [1]?
Answer: 19.7%

Question: What about the viability, T/C [2] of the same compound?
Answer: 14.3%

Question: And the viability, T/C [3]?
Answer: 16.9%

Question: And the viability, T/C [4]?
Answer: 16.6%

Question: What about the viability, T/C (second compound 0.0316 µM, first compound 3.16 µM) of the same compound?
Answer: 25.4%

Question: And the viability, T/C (second compound 0.0316 µM, first compound 10 µM)?
Answer: 30.8%

Question: And the viability, T/C [5]?
Answer: 31.3%

Question: What about the viability, T/C [6] of the same compound?
Answer: 26.3%

Question: What about the viability, T/C [7] of the same compound?
Answer: 31.9%

Question: What about the viability, T/C [8] of the same compound?
Answer: 28%

Question: And the viability, T/C (second compound 0.1 µM, first compound 3.16 µM)?
Answer: 33.3%

Question: What about the viability, T/C (second compound 0.1 µM, first compound 10 µM) of the same compound?
Answer: 43.4%

Question: And the viability, T/C [9]?
Answer: 34.9%

Question: And the viability, T/C [10]?
Answer: 30.4%

Question: And the viability, T/C [11]?
Answer: 37%

Question: And the viability, T/C [12]?
Answer: 39.8%

Question: What about the viability, T/C (second compound 0.316 µM, first compound 3.16 µM) of the same compound?
Answer: 34.5%

Question: And the viability, T/C (second compound 0.316 µM, first compound 10 µM)?
Answer: 33%

Question: What about the viability, T/C [13] of the same compound?
Answer: 20.6%

Question: What about the viability, T/C [14] of the same compound?
Answer: 27.6%

Question: And the viability, T/C [15]?
Answer: 33.4%

Question: And the viability, T/C [16]?
Answer: 39.4%

Question: What about the viability, T/C (second compound 1 µM, first compound 3.16 µM) of the same compound?
Answer: 35.9%

Question: What about the viability, T/C (second compound 1 µM, first compound 10 µM) of the same compound?
Answer: 33%

Question: What about the viability, T/C [17] of the same compound?
Answer: 20.9%

Question: What about the viability, T/C [18] of the same compound?
Answer: 26.1%

Question: What about the viability, T/C [19] of the same compound?
Answer: 31%

Question: What about the viability, T/C [20] of the same compound?
Answer: 34.8%

Question: And the viability, T/C (second compound 3.16 µM, first compound 3.16 µM)?
Answer: 37.6%

Question: And the viability, T/C (second compound 3.16 µM, first compound 10 µM)?
Answer: 31.2%

Question: And the viability, T/C [21]?
Answer: 19.1%

Question: And the viability, T/C [22]?
Answer: 27.5%

Question: What about the viability, T/C [23] of the same compound?
Answer: 29%

Question: And the viability, T/C [24]?
Answer: 36.2%

Question: What about the viability, T/C (second compound 10 µM, first compound 3.16 µM) of the same compound?
Answer: 40.2%

Question: And the viability, T/C (second compound 10 µM, first compound 10 µM)?
Answer: 32.2%

Question: CCc1c2c(nc3ccc(O)cc13)-c1cc3c(c(=O)n1C2)COC(=O)[C@]3(O)CC + CNC(=O)c1ccc(Nc2nc(OC3CCCC3)c3c(-c4ccc5nc(C)oc5c4)c[nH]c3n2)c(OC)c1 was tested. Which IC50 (second compound 0.0316 µM) did it give?
Answer: 3.76 nM

Question: And the IC50 (second compound 0.1 µM)?
Answer: < 3.16 nM

Question: And the IC50 (second compound 0.316 µM)?
Answer: < 3.16 nM

Question: And the IC50 (second compound 1 µM)?
Answer: < 3.16 nM

Question: What about the IC50 (second compound 3.16 µM) of the same compound?
Answer: < 3.16 nM

Question: And the IC50 (second compound 10 µM)?
Answer: < 3.16 nM

Question: And the viability, T/C (second compound 0.0316 µM, first compound 0.00316 µM)?
Answer: 53.2%

Question: What about the viability, T/C (second compound 0.0316 µM, first compound 0.01 µM) of the same compound?
Answer: 39.4%

Question: And the viability, T/C [1]?
Answer: 32.2%

Question: And the viability, T/C [2]?
Answer: 24.1%

Question: What about the viability, T/C [3] of the same compound?
Answer: 15.6%

Question: What about the viability, T/C [4] of the same compound?
Answer: 3.04%

Question: And the viability, T/C (second compound 0.1 µM, first compound 0.00316 µM)?
Answer: 48.7%

Question: And the viability, T/C (second compound 0.1 µM, first compound 0.01 µM)?
Answer: 35.8%

Question: What about the viability, T/C [5] of the same compound?
Answer: 27.9%

Question: And the viability, T/C [6]?
Answer: 24.6%

Question: And the viability, T/C [7]?
Answer: 17.4%

Question: And the viability, T/C [8]?
Answer: 3.12%

Question: What about the viability, T/C (second compound 0.316 µM, first compound 0.00316 µM) of the same compound?
Answer: 39.6%

Question: What about the viability, T/C (second compound 0.316 µM, first compound 0.01 µM) of the same compound?
Answer: 30.1%

Question: And the viability, T/C [9]?
Answer: 25.1%

Question: What about the viability, T/C [10] of the same compound?
Answer: 21.4%

Question: What about the viability, T/C [11] of the same compound?
Answer: 12.9%

Question: What about the viability, T/C [12] of the same compound?
Answer: 3.58%

Question: And the viability, T/C (second compound 1 µM, first compound 0.00316 µM)?
Answer: 24.6%

Question: What about the viability, T/C (second compound 1 µM, first compound 0.01 µM) of the same compound?
Answer: 20.5%

Question: What about the viability, T/C [13] of the same compound?
Answer: 17.6%

Question: What about the viability, T/C [14] of the same compound?
Answer: 15.6%

Question: And the viability, T/C [15]?
Answer: 9.88%

Question: What about the viability, T/C [16] of the same compound?
Answer: 3.65%

Question: What about the viability, T/C (second compound 3.16 µM, first compound 0.00316 µM) of the same compound?
Answer: 23.6%

Question: And the viability, T/C (second compound 3.16 µM, first compound 0.01 µM)?
Answer: 20.8%

Question: What about the viability, T/C [17] of the same compound?
Answer: 15.6%

Question: What about the viability, T/C [18] of the same compound?
Answer: 13%

Question: What about the viability, T/C [19] of the same compound?
Answer: 9.01%

Question: And the viability, T/C [20]?
Answer: 2.91%

Question: And the viability, T/C (second compound 10 µM, first compound 0.00316 µM)?
Answer: 23.2%

Question: What about the viability, T/C (second compound 10 µM, first compound 0.01 µM) of the same compound?
Answer: 18.8%

Question: And the viability, T/C [21]?
Answer: 17%

Question: And the viability, T/C [22]?
Answer: 13.4%

Question: What about the viability, T/C [23] of the same compound?
Answer: 10%

Question: What about the viability, T/C [24] of the same compound?
Answer: 3.01%

Source: PubChem BioAssay AID2060624 (Molecular Pharmacology Branch, DTP, NCI, 2025)
